Counter-ions that a name gives are not always drawn. Some results are limits rather than exact numbers.

The first assay deals with Helicobacter pylori. The assay can be described thus: activity against Helicobacter pylori (Columbia agar, growth period of 4 days). In kind it is cell-based. The conditions noted are these: Columbia agar (Oxoid), approximate values.
On to “4-[3-(4-Phenyl-1-piperazinyl)propylthio]-2-[(4-pyridinylthio)methyl]pyridine [Compound 16]”, for which the “Approx. MIC 50” value was ≤ 0,5 μg/ml.

Staying with this assay, now noted: Helicobacter pylori, 96 h, Columbia agar (Oxoid), approximate values, read-out: Approx. MIC 50.
For the compound `Cc1ncsc1CCSc1ccnc(CSc2ccccn2)c1C` [Compound 3, 3-Methyl-4-[2-(4-methyl-5-thiazolyl)ethylthio]2-[(2-pyridinylthio)methyl]pyridine], the MIC50 is ≤ 0.5 µg/mL.
Same read-out and setting: for `Cc1c(SCCCSc2ccncc2)ccnc1CSc1ccccn1` [Compound 6] the value was ≤ 0.5 µg/mL; for `Cc1c(SCc2ccco2)ccnc1CSc1ccncc1` [Compound 11, 4-(2-Furylmethylthio)-3-methyl-2-[(4-pyridinylthio)methyl]pyridine], ≤ 0.5 µg/mL.
As for `Cc1c(SCCCSc2ccncc2)ccnc1CSc1ccncc1` [Compound 14, 3-Methyl-2-[(4-pyridinylthio)methyl]-4-[5-(4-pyridinyl)-1,5-dithiapentyl]pyridine], the MIC50 was ≤ 0.5 µg/mL.
As to `Cc1c(SCCCSC(=S)N(C)C)ccnc1CSc1ccncc1` [Compound 15, 4-[(3-Dimethyldithiocarbamoyl)propylthio]-3-methyl-2-[(4-pyridinylthio)methyl]pyridine], the MIC50 is ≤ 0.5 µg/mL.
The same measure, in the same setting: for `Cc1c(SCCCSCCn2c([N+](=O)[O-])cnc2C)ccnc1CSc1ccncc1` [Compound 29, 4-[[7-(2-Methyl-5-nitroimidazol-1-yl)-1,5-dithiahept-1-yl]-3-methyl]-2-[(4-pyridinylthio)methyl]-pyridine dihydrochloride] the value was ≤ 0.5 µg/mL.
Same read-out and setting: for `Cc1c(SCCCn2c([N+](=O)[O-])cnc2C)ccnc1CSc1ncccn1` [Compound 32, 3-Methyl-4-[3-(2-methyl-5-nitroimidazol-1-yl)propylthio]-2-[(2-pyrimidinylthio)methyl]pyridine] the value was ≤ 0.5 µg/mL.
